The subject of data set [1] is OsGA2ox1. As to conditions: cited from earlier work.
For data set [2], the target named is T1, OsGA2ox3 (Oryza sativa subsp. japonica, UniProt Q8S0S6).
T1 construct: general method only; made in house; host or cells: E. coli
Put plainly: Enzyme assay with recombinant OsGA2ox3 (E. coli lysate), products identified by GC-MS. The data set is classed as biochemical. As to conditions: labeled substrate incubated with recombinant OsGA2ox3, full scan GC-MS. From the text:
A cell lysate obtained from E. coli heterologously expressing OsGA2ox3 cDNA was used for enzyme assay as previously described (Sakamoto, T. et al., Plant Physiol., 125(3): 1508–16, (2001)). […] However, GA20 was metabolized to a GA29-catabolite. Furthermore, the metabolism of GA29 to a GA29-catabolite was confirmed by metabolism experiments.

For data set [3], the system named is OsGA2ox3. Put plainly: RNA gel blot of OsGA2ox3 transcription in treated rice seedlings. The data set is classed as in vivo, Oryza sativa. Particulars: for transcription level of the OsGA2ox3 gene: FIG. 6B; for Transcription level of OsGA2ox3: wild-type rice seedlings, 10 μM, three days, FIG. 6A. Here is the method: (§1) Seeds of wild-type rice (Oryza sativa L., i.e. Nipponbare) were sterilized in 1% NaClO for one hour, and seeded on agar medium. Seedlings were grown in a growth chamber under continuous light at 30° C. To investigate the influence of GA3 and uniconazole on GA-oxidase expression, wild-type rice seedlings were transferred to a hydroponic culture system containing 10 μM GA3 or 10 μM uniconazole, and allowed to grow for three days. Ten-micrograms of RNAs were prepared from each sample, and gel blot analysis was performed as previously described (Sakamoto, T. et al., Plant Physiol., 125(3): 1508–16, 2001). The influence of uniconazole, a suppressor of GA3 and GA biosyntheses, on the transcriptional level of OsGA2ox2 and OsGA2ox3 (FIG. 6A) was examined. Transcription level of OsGA2ox3 was increased by GA3 treatment, but decreased by uniconazole (FIG. 6A) treatment. […] Transcription of the […] gene was not detected even after GA3 treatment.

Another data set concerns OsGA20ox1. Kind of data set: RNA gel blot of GA20-oxidase gene transcription in treated rice seedlings. The data set is classed as in vivo, Oryza sativa. Particulars: wild-type rice seedlings, 10 μM, three days, relative to the effect on OsGA2ox3. Here is the method: as §1
Data set [4] concerns OsGA2ox1. Particulars: GA3-treatment; cited from earlier work.
In another data set the test system is AtGA2ox2. Particulars: GA-deficient mutants, after treatment with GA3; cited from earlier work.
The test system of a further data set is AtGA2ox1. As to conditions: GA-deficient mutants, after treatment with GA3; cited from earlier work.
Another data set concerns wild type rice. Kind of data set: Overexpression of OsGA2ox3 cDNA in transgenic rice. The data set is classed as in vivo, Oryza sativa. Here is the method:
As previously described (Sakamoto, T. et al., Plant Physiol., 125(3): 1508–16, 2001), the full-length OsGA2ox3 cDNA was inserted between the rice actin promoter and the polyadenylation signal of nopaline synthase (NOS) present in a hygromycin resistant binary vector pAct-Hm2. This construct was introduced into Agrobacterium tumefaciens EHA101. Agrobacterium-mediated transformation was conducted as described in the literature (WO 01/06844 A1). Transgenic plants were selected on a medium containing 50 mg/L hygromycin.
To test the activity of the OsGA2ox3 gene product in vivo, the full-length OsGA2ox3 cDNA was fused to the rice actin promoter and introduced into wild type rice by Agrobacterium-mediated gene transfer. […] Leaf blades of these plants were dark green, and they were shorter and wider than those of the wild type plants. All of these phenotypes are typical for GA-deficient dwarf rice plants.

T1 sequence (Q8S0S6 whole entry): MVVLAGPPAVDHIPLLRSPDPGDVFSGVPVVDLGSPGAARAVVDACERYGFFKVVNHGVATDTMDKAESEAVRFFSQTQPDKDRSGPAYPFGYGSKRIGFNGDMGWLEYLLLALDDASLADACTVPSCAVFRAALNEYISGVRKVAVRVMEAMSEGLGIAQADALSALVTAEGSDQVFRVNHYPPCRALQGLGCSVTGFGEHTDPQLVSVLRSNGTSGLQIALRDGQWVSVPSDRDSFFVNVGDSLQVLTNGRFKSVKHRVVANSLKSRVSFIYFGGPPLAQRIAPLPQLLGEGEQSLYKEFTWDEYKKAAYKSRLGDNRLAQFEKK

Take `C=C1C[C@]23C[C@@]1(O)CC[C@H]2[C@@]12CCC[C@@](C)(C(=O)O1)[C@H]2[C@@H]3C(=O)O` [GA20, gibberellin A20]: the “product of metabolism by OsGA2ox1 gene product” value in the data set with OsGA2ox1 [1] is “GA29”. Also, the Product entry at OsGA2ox3 [2] is “GA29-catabolite”; at OsGA2ox3 [2] (listed as [^2H2]GA20), “[^2H2]GA29-catabolite”.

As for `C=C1C[C@]23C[C@@]1(O)CC[C@H]2[C@@]12C[C@H](O)C[C@@](C)(C(=O)O1)[C@H]2[C@@H]3C(=O)O` [GA29, gibberellin A29], the Product result on OsGA2ox3 [2] is “GA29-catabolite”; on OsGA2ox3 [2] (listed as [^2H2]GA29) it was “[^2H2]GA29-catabolite”.

Regarding `C=C1C[C@]23C[C@@]1(O)CC[C@H]2[C@@]12CC[C@H](O)[C@@](C)(C(=O)O1)[C@H]2[C@@H]3C(=O)O` [GA1], in the data set on OsGA2ox1 [1], the “product of metabolism by OsGA2ox1 gene product” value is recorded as “GA8”. In addition, the Product entry is “GA8” at OsGA2ox3 [2] and “[^2H2]GA8” on OsGA2ox3 [2] (listed as [^2H2]GA1).

Consider `C=C1C[C@]23C[C@@]1(O)CC[C@H]2[C@@]12C=C[C@H](O)[C@@](C)(C(=O)O1)[C@H]2[C@@H]3C(=O)O` [GA3], for which, in the data set on OsGA2ox3 [3] (after GA3 treatment, detection), the “Transcription of the OsGA2ox3 gene” value is given as “not detected”. The results for the “transcription level of the OsGA2ox3 gene” value with OsGA2ox3 [3] (one hour after GA3 treatment) and with OsGA2ox3 [3] (six hours after GA3 treatment) were “increased” and “decreased to a level that was even lower than the transcription level observed before GA3 treatment”, respectively. Moreover, the “Transcription level of OsGA2ox3” value in the data set with OsGA2ox3 [3] was “increased”. The “transcriptional level of the OsGA20ox1 gene” value with OsGA20ox1 is “completely reversed”. In addition, the “transcription level of OsGA2ox1” value in the data set on OsGA2ox1 [4] is listed as “not affected”. Further, the “transcription levels of AtGA2ox2” value in the data set with AtGA2ox2 is “increased”. The “transcription levels of AtGA2ox1” value with AtGA2ox1 was “increased”.

Consider `CC(C)(C)C(O)/C(=C\c1ccc(Cl)cc1)n1cncn1` (centres unmarked) [uniconazole], for which, in the data set with OsGA2ox3 [3], the “Transcription level of OsGA2ox3” value is given as “decreased”. The “transcriptional level of the OsGA20ox1 gene” value in the data set on OsGA20ox1 was “completely reversed”.

B1: OsGA2ox3 cDNA: full-length rice GA2-oxidase cDNA (SEQ ID NO: 3) fused to the rice actin promoter, introduced into rice (nucleic acid, listed as Oryza sativa)
DNA: ATGGTGGTTCTCGCTGGCCCGCCCGCCGTCGATCACATCCCGCTGCTGAGGTCGCCGGACCCCGGCGACGTCTTCTCCGGCGTGCCGGTCGTCGACCTCGGCAGCCCCGGCGCGGCGAGGGCCGTGGTGGACGCCTGCGAGCGGTACGGGTTCTTCAAGGTCGTCAACCACGGCGTGGCCACGGACACGATGGACAAGGCCGAGTCGGAGGCCGTCAGGTTCTTCTCCCAGACGCAGCCCGACAAGGACCGCTCCGGCCCGGCCTACCCGTTCGGGTACGGCAGCAAGCGGATCGGGTTCAATGGCGACATGGGGTGGCTCGAGTACCTCCTCCTCGCCCTCGACGACGCGTCGCTCGCCGACGCCTGCACCGTCCCGTCCTGCGCGGTCTTCCGGGCCGCTCTGAACGAGTACATCTCGGGGGTGCGGAAGGTGGCGGTGCGGGTGATGGAGGCGATGTCGGAGGGGCTGGGCATTGCGCAGGCGGACGCGCTGAGCGCGCTGGTGACGGCGGAAGGGAGCGACCAGGTGTTCCGCGTGAACCACTACCCGCCGTGCCGCGCGCTGCAGGGGCTCGGCTGCAGCGTCACCGGCTTCGGCGAGCACACCGACCCGCAGCTCGTCTCCGTGCTCCGCTCAAACGGCACGTCCGGCCTGCAGATCGCGCTCCGCGACGGCCAGTGGGTGTCCGTGCCCTCCGACCGCGACTCCTTCTTCGTCAACGTCGGCGACTCGTTGCAGGTTCTGACCAATGGGAGGTTCAAGAGCGTGAAGCACAGGGTGGTGGCCAACAGCCTAAAGTCTAGGGTTTCCTTCATCTACTTTGGAGGGCCACCGTTAGCACAGAGGATTGCACCATTGCCACAGCTGCTGGGGGAGGGAGAGCAGAGCCTGTACAAGGAGTTCACATGGGATGAGTACAAGAAGGCTGCCTACAAATCAAGGCTTGGAGACAACAGGCTGGCCCAGTTTGAGAAGAAGTAG
modifications: rice actin promoter fused, not cited; CDS (1)..(984)
Take B1: the “phenotype of transgenic plants” value with wild type rice (rice actin promoter, 27 independent lines, FIG. 5) is given as “extreme dwarf phenotypes”. The “flowering of transgenic plants” value in the data set with wild type rice (wild type flowered about three months after seeding) is “did not flower even after four months”.

(Values after patent US7154028B2, “Gibberellin 2-oxidase gene, functions and uses thereof” (National Agriculture and Bio-Oriented Research Organization, priority 2002, dated 2006).)
